# Where two headings read alike, the source gives them in different places.
# How the values were obtained:
# nuOXPHOS transcripts = type: cell-based, mouse; conditions: for nucOX (composite Z-score): normalized score vs mock-treated (DMSO) wells
# cytochrome c = type: cell-based, mouse; conditions: for cyt c (composite Z-score): normalized score vs mock-treated (DMSO) wells
# [1] = tested on: mitochondrial membrane potential; type: cell-based, mouse; conditions: for ΔΨm (composite Z-score): normalized score vs mock-treated (DMSO) wells
# OXPHOS gene expression = type: cell-based, mouse; conditions: for GE-HTS (composite Z-score): normalized score vs mock-treated (DMSO) wells
# reactive oxygen species = type: cell-based, mouse; conditions: for ROS (composite Z-score): normalized score vs mock-treated (DMSO) wells
# [2] = tested on: cellular dehydrogenase activity; conditions: for MTT (composite Z-score): normalized score vs mock-treated (DMSO) wells
# mtOXPHOS transcripts = type: cell-based, mouse; conditions: for mitoOX (composite Z-score): normalized score vs mock-treated (DMSO) wells
# C2C12 myotubes = conditions: for Viability (composite Z-score): normalized score vs mock-treated (DMSO) wells
# [3] = composite Z-score vs DMSO, Conc 20 μM
# [4] = normalized composite Z-score vs mock-treated (DMSO) wells, Conc 20 μM
# [5] = 14.26 μM, composite Z-score vs DMSO
# [6] = 20 μM, composite Z-score vs DMSO
# [7] = composite Z-score vs DMSO wells, Conc 20 μM
smiles,measurement,setting,value
"CC[C@@H](C(=O)[C@@H](C)[C@@H](O)[C@H](C)CCc1ccc(C)c(O)c1C(=O)O)[C@H]1O[C@](CC)([C@H]2CC[C@](O)(CC)[C@H](C)O2)C[C@@H]1C [lasalocid, reference compound]",nucOX,nuOXPHOS transcripts; [3],0.274
same,cyt c,cytochrome c; [3],−1.690
same,ΔΨm,[1]; [3],−1.178
same,GE-HTS,OXPHOS gene expression; [3],−1.524
same,ROS,reactive oxygen species; [3],−2.993
same,MTT,[2]; [3],−1.771
same,mitoOX,mtOXPHOS transcripts; [3],−4.908
same,Viability,C2C12 myotubes; [3],−1.090
COC(=O)c1c(C)c2c(c(C)c1OC)OC(=O)c1c(C)c(Cl)c(OC)c(Cl)c1O2 [leoidin dimethyl ether],nucOX,nuOXPHOS transcripts; [4],−0.595
same,cyt c,cytochrome c; [4],1.032
same,ΔΨm,[1]; [4],−0.320
same,GE-HTS,OXPHOS gene expression; [4],−1.008
same,ROS,reactive oxygen species; [4],−0.121
same,MTT,[2]; [4],−0.726
same,mitoOX,mtOXPHOS transcripts; [4],−1.691
same,Viability,C2C12 myotubes; [4],0.677
COC(=O)c1c(C)c2c(c(C)c1O)OC(=O)c1c(C)c(Cl)c(O)c(Cl)c1O2 [leoidin],nucOX,nuOXPHOS transcripts; [3],−0.523
same,cyt c,cytochrome c; [3],0.341
same,ΔΨm,[1]; [3],−1.352
same,GE-HTS,OXPHOS gene expression; [3],−0.611
same,ROS,reactive oxygen species; [3],1.481
same,MTT,[2]; [3],0.994
same,mitoOX,mtOXPHOS transcripts; [3],−0.638
same,Viability,C2C12 myotubes; [3],0.035
CC1=CC(=O)C2=C(C)CC[C@@H]3[C@H](OC(=O)[C@H]3C)[C@@H]12 [leucodin],nucOX (composite Z-score),nuOXPHOS transcripts; Conc 20 μM,−0.270
same,cyt c (composite Z-score),cytochrome c; Conc 20 μM,−0.301
same,ΔΨm (composite Z-score),[1]; Conc 20 μM,−0.355
same,GE-HTS (composite Z-score),OXPHOS gene expression; Conc 20 μM,−0.300
same,ROS (composite Z-score),reactive oxygen species; Conc 20 μM,0.695
same,MTT (composite Z-score),[2]; Conc 20 μM,−1.134
same,mitoOX (composite Z-score),mtOXPHOS transcripts; Conc 20 μM,−0.261
same,Viability (composite Z-score),C2C12 myotubes; Conc 20 μM,−0.525
CC1=CC(=O)C2=C(C)CC[C@@H]3[C@H](OC(=O)[C@H]3C)[C@@H]12 [leucomisine],nucOX (composite Z-score),nuOXPHOS transcripts; Conc 16.24 μM,−0.405
same,cyt c (composite Z-score),cytochrome c; Conc 16.24 μM,−0.568
same,ΔΨm (composite Z-score),[1]; Conc 16.24 μM,0.151
same,GE-HTS (composite Z-score),OXPHOS gene expression; Conc 16.24 μM,−0.450
same,ROS (composite Z-score),reactive oxygen species; Conc 16.24 μM,0.368
same,MTT (composite Z-score),[2]; Conc 16.24 μM,−1.034
same,mitoOX (composite Z-score),mtOXPHOS transcripts; Conc 16.24 μM,−0.470
same,Viability (composite Z-score),C2C12 myotubes; Conc 16.24 μM,−0.439
CC1(C)O[C@H]2CC(=O)OC[C@]23[C@H]2CC[C@@]4(C)[C@H](c5ccoc5)OC(=O)[C@H]5O[C@]54[C@]2(C)C(=O)C[C@@H]13 [limonin],nucOX,nuOXPHOS transcripts; [3],−0.317
same,cyt c,cytochrome c; [3],0.042
same,ΔΨm,[1]; [3],−0.668
same,GE-HTS,OXPHOS gene expression; [3],−0.197
same,ROS,reactive oxygen species; [3],1.165
same,MTT,[2]; [3],−1.564
same,mitoOX,mtOXPHOS transcripts; [3],0.127
same,Viability,C2C12 myotubes; [3],−0.818
CC(C)(C#N)O[C@@H]1O[C@H](CO)[C@@H](O)[C@H](O)[C@H]1O [linamarin],nucOX (composite Z-score),nuOXPHOS transcripts; Conc 20 μM,−0.847
same,cyt c (composite Z-score),cytochrome c; Conc 20 μM,−0.052
same,ΔΨm (composite Z-score),[1]; Conc 20 μM,−0.333
same,GE-HTS (composite Z-score),OXPHOS gene expression; Conc 20 μM,−1.024
same,ROS (composite Z-score),reactive oxygen species; Conc 20 μM,−0.189
same,MTT (composite Z-score),[2]; Conc 20 μM,−1.611
same,mitoOX (composite Z-score),mtOXPHOS transcripts; Conc 20 μM,−1.232
same,Viability (composite Z-score),C2C12 myotubes; Conc 20 μM,0.796
CCCCCc1c2c(cc(O)c1C(=O)O)OC(=O)c1c(cc(OC)cc1C(=O)CCCC)O2 [lobaric acid],nucOX,nuOXPHOS transcripts; [3],−0.499
same,cyt c,cytochrome c; [3],−0.020
same,ΔΨm,[1]; [3],−0.164
same,GE-HTS,OXPHOS gene expression; [3],−0.455
same,ROS,reactive oxygen species; [3],0.860
same,MTT,[2]; [3],−0.427
same,mitoOX,mtOXPHOS transcripts; [3],−0.343
same,Viability,C2C12 myotubes; [3],0.082
C[C@@H]1[C@H]2[C@H](O[C@@H]3O[C@H](CO)[C@@H](O)[C@H](O)[C@H]3O)OC=C(C(=O)O)[C@H]2C[C@@H]1O [loganic acid],nucOX (composite Z-score),nuOXPHOS transcripts; Conc 20 μM,−0.274
same,cyt c (composite Z-score),cytochrome c; Conc 20 μM,−0.485
same,ΔΨm (composite Z-score),[1]; Conc 20 μM,−0.193
same,GE-HTS (composite Z-score),OXPHOS gene expression; Conc 20 μM,−0.463
same,ROS (composite Z-score),reactive oxygen species; Conc 20 μM,−0.346
same,MTT (composite Z-score),[2]; Conc 20 μM,−0.538
same,mitoOX (composite Z-score),mtOXPHOS transcripts; Conc 20 μM,−0.800
same,Viability (composite Z-score),C2C12 myotubes; Conc 20 μM,1.214
O=C1CC[C@]23/C=C/C(=O)NCCCCNCCCNC(=O)/C=C/c4ccc(c2c4)O[C@@H]3C1 [lunarine],nucOX,nuOXPHOS transcripts; [3],−0.880
same,cyt c,cytochrome c; [3],0.685
same,ΔΨm,[1]; [3],−0.795
same,GE-HTS,OXPHOS gene expression; [3],−0.945
same,ROS,reactive oxygen species; [3],0.385
same,MTT,[2]; [3],−0.938
same,mitoOX,mtOXPHOS transcripts; [3],−0.856
same,Viability,C2C12 myotubes; [3],−0.579
C[C@@H]1C[C@H]2CC(=O)[C@H]3CCCN4CCC[C@H]2[C@]34C1 [lycopodine],nucOX,nuOXPHOS transcripts; [3],−0.028
same,cyt c,cytochrome c; [3],−0.093
same,ΔΨm,[1]; [3],−0.239
same,GE-HTS,OXPHOS gene expression; [3],−0.150
same,ROS,reactive oxygen species; [3],0.500
same,MTT,[2]; [3],−1.139
same,mitoOX,mtOXPHOS transcripts; [3],−0.411
same,Viability,C2C12 myotubes; [3],−0.466
Oc1ccc2c(c1)OC[C@H]1c3cc4c(cc3O[C@@H]21)OCO4 [maackiain],nucOX (composite Z-score),nuOXPHOS transcripts; Conc 20 μM,−0.285
same,cyt c (composite Z-score),cytochrome c; Conc 20 μM,0.969
same,ΔΨm (composite Z-score),[1]; Conc 20 μM,0.391
same,GE-HTS (composite Z-score),OXPHOS gene expression; Conc 20 μM,−0.561
same,ROS (composite Z-score),reactive oxygen species; Conc 20 μM,0.879
same,MTT (composite Z-score),[2]; Conc 20 μM,−0.578
same,mitoOX (composite Z-score),mtOXPHOS transcripts; Conc 20 μM,−1.049
same,Viability (composite Z-score),C2C12 myotubes; Conc 20 μM,−1.052
CCN(CC)CCNC(=O)COc1ccc(OC)cc1 [mefexamide],nucOX,nuOXPHOS transcripts; [5],−0.498
same,nucOX,nuOXPHOS transcripts; [6],−0.253
same,cyt c,cytochrome c; [5],0.129
same,cyt c,cytochrome c; [6],−0.257
same,ΔΨm,[1]; [5],−0.719
same,ΔΨm,[1]; [6],−0.643
same,GE-HTS,OXPHOS gene expression; [5],−0.340
same,GE-HTS,OXPHOS gene expression; [6],−0.215
same,ROS,reactive oxygen species; [5],1.172
same,ROS,reactive oxygen species; [6],0.837
same,MTT,[2]; [5],−1.363
same,MTT,[2]; [6],−1.270
same,mitoOX,mtOXPHOS transcripts; [5],0.009
same,mitoOX,mtOXPHOS transcripts; [6],−0.101
same,Viability,C2C12 myotubes; [5],−0.541
same,Viability,C2C12 myotubes; [6],−2.120
OC(c1cc(C(F)(F)F)nc2c(C(F)(F)F)cccc12)C1CCCCN1 (centres unmarked) [mefloquine],nucOX,nuOXPHOS transcripts,−0.073
same,nucOX,nuOXPHOS transcripts; [6],0.552
same,cyt c,cytochrome c,0.498
same,cyt c,cytochrome c; [6],−1.496
same,ΔΨm,[1],−0.537
same,ΔΨm,[1]; [6],−0.505
same,GE-HTS,OXPHOS gene expression,−0.036
same,GE-HTS,OXPHOS gene expression; [6],0.362
same,ROS,reactive oxygen species,−0.069
same,ROS,reactive oxygen species; [6],−0.983
same,MTT,[2],−1.368
same,MTT,[2]; [6],0.374
same,mitoOX,mtOXPHOS transcripts,0.007
same,mitoOX,mtOXPHOS transcripts; [6],−0.093
same,Viability,C2C12 myotubes,−0.183
same,Viability,C2C12 myotubes; [6],1.135
OC[C@H]1O[C@@](CO)(O[C@H]2O[C@H](CO)[C@@H](O)[C@H](O)[C@H]2O)[C@@H](O[C@H]2O[C@H](CO)[C@@H](O)[C@H](O)[C@H]2O)[C@@H]1O [melezitose],nucOX,nuOXPHOS transcripts; [4],0.054
same,cyt c,cytochrome c; [4],0.284
same,ΔΨm,[1]; [4],−0.605
same,GE-HTS,OXPHOS gene expression; [4],−0.502
same,ROS,reactive oxygen species; [4],−0.125
same,MTT,[2]; [4],−0.968
same,mitoOX,mtOXPHOS transcripts; [4],−1.553
same,Viability,C2C12 myotubes; [4],−0.843
N[C@@H](Cc1ccc(N(CCCl)CCCl)cc1)C(=O)O [melphalan],nucOX,nuOXPHOS transcripts; [7],1.282
same,cyt c,cytochrome c; [7],−0.954
same,ΔΨm,[1]; [7],0.151
same,GE-HTS,OXPHOS gene expression; [7],1.449
same,ROS,reactive oxygen species; [7],−0.265
same,MTT,[2]; [7],−1.387
same,mitoOX,mtOXPHOS transcripts; [7],1.453
same,Viability,C2C12 myotubes; [7],−0.360
CC1CCC(C(C)C)C(OC(=O)c2ccccc2)C1 (centres unmarked) [menthyl benzoate],nucOX (composite Z-score),nuOXPHOS transcripts; Conc 20 μM,0.047
same,cyt c (composite Z-score),cytochrome c; Conc 20 μM,−0.724
same,ΔΨm (composite Z-score),[1]; Conc 20 μM,0.016
same,GE-HTS (composite Z-score),OXPHOS gene expression; Conc 20 μM,−0.115
same,ROS (composite Z-score),reactive oxygen species; Conc 20 μM,1.375
same,MTT (composite Z-score),[2]; Conc 20 μM,−1.026
same,mitoOX (composite Z-score),mtOXPHOS transcripts; Conc 20 μM,−0.336
same,Viability (composite Z-score),C2C12 myotubes; Conc 20 μM,−0.151
C[N+]1(C)CCCC(OC(=O)C(O)(c2ccccc2)c2ccccc2)C1 (centres unmarked) [mepenzolate],nucOX,nuOXPHOS transcripts; [7],0.062
same,cyt c,cytochrome c,0.666
same,cyt c,cytochrome c; [7],0.855
same,ΔΨm,[1]; [7],1.198
same,GE-HTS,OXPHOS gene expression; [7],−0.025
same,ROS,reactive oxygen species; [7],0.368
same,MTT,[2]; [7],−0.894
same,mitoOX,mtOXPHOS transcripts; [7],−0.129
same,Viability,C2C12 myotubes; [7],0.333
